As usually defined, the IC50 is the point on the concentration scale where inhibition reaches its midpoint.

The values that follow come from patent US11241501B2, “Anticancer prodrug for overcoming drug resistance” (Korea University Research and Business Foundation, priority 2018, dated 2022).

Series [1] has as its system cancer cells (A549 and HepG2), normal cells (NHDF and IMR90). In words: Cellular uptake of compounds in normal and cancer cells. The note with it: 5 μM, 6 h, A549, HepG2 vs NHDF. It counts as cell-based, human. As for the experimental part:
Cells were treated with 5 μM of each compound for 6 h. Fluorescence intensities were determined using SpectraMAX 13;
(§1) To analyze the cellular fluorescence levels upon compound treatment, cells were seeded in plates 1 day before treatment with the compounds. Cells were then treated with each compound for the indicated dose or time course. After the experiment, cells were washed with ice-cold PBS, trypsinized, and centrifuged. The cell pellet was re-suspended in 300 μL of PBS and then analyzed using a multiplate reader (SpectraMAX I3x). The results were normalized according to the number of cells.

Series [2] relates to HepG2 cells. The experiment in a line: Confocal intracellular localization with MitoTracker. It counts as cell-based, human. The note with it: HepG2, 5 μM, 24 hr. As for the experimental part: (§2) HepG2 cells treated with each compound (5 μM, 24 hr) were co-stained with the mitochondrial marker MitoTracker (green). Boxed regions show co-localization of the test compounds and probe within the mitochondria. […] Experiments were carried out in triplicate and the data shown represent means±SD. **p<0.01. […] HepG2 cells were incubated with BNPP (100 μM) for 2 hr prior to C1 treatment. **p<0.01. […] Cleaved caspase-3 and PARP-1 levels were examined to assess apoptosis induction. C, cleaved.
Cells were seeded on glass chamber slides (Nalgene Nunc) followed by probe treatment. After 48 h, the cells were fixed with 4% formaldehyde, and blocked with 2% bovine serum albumin-PBS for 30 min. The mitochondria were stained using MitoTracker™ Green FM (Invitrogen, USA) for 30 min. Fluorescent images were obtained using a confocal laser scanning microscope (Carl Zeiss MicroImaging, Inc., Germany).

Series [3] has as its system HepG2 cells. In words: WST cell viability assay. It counts as cell-based, human. As for the experimental part:
as §2
(§3) Cells were seeded in 24 well plates at 2×10^5 cells per well and were allowed to adhere for at least 24 h, growth medium was replaced with medium containing C1 or its analogues at the indicated concentrations and times, and cell viability was assessed via the WST-1 assay (Roche Diagnostics, Laval, QC, Canada). For the colony formation assay, cells were seeded in 6-well plates. After 24 h, cells were maintained in the presence of each probe or vehicle dimethyl sulfoxide (DMSO) for 10 days. Colonies were fixed with methanol for 10 min and stained with 0.05% crystal violet in 20% ethanol.

Series [4] has as its system MCF7 and MCF7/Dox cells. The experiment in a line: Intracellular accumulation, fluorescence assay. It counts as cell-based, human. The note with it: up to 12 hr after treatment. As for the experimental part: (§4) Fluorescence intensities were measured with SpectraMAX 13. Data represent means±SD. **p<0.01. […] Data represent means±SD. **[…]. […] Data represent the mean±SD (n=3 experimental replicates). *p<0.05, **p<0.01. […] MCF7/Dox cells were treated with C1 or C3 as indicated, and the cytosolic (C) and mitochondrial (M) fractions were subjected to immunoblot assay. COX-IV and tubulin were used as markers for the mitochondria and cytosol fractions, respectively.
Mito-tracker (green) was utilized to show the mitochondria;
as §1

The test system of series [5] is MCF7 cells. The experiment in a line: Colony formation assay. It counts as cell-based, human. The conditions noted are these: 10 days. The protocol:
as §3

For series [6], the system named is MCF7/Dox xenograft tumors. The experiment in a line: Independent comparative xenograft study of C1-C4. It counts as in vivo, mice. The note with it: n=5 per group, FIG. 23C. The source says: Tumors are shown (right). […] C1 injection led to a 58% reduction in tumor growth, which was statistically greater than the reductions seen in the case of C2 (16%), C3 (9%), C4 (6%) and DMSO (0%) tested under otherwise identical conditions.

Series [7] deals with p21^Waf1 and phosphorylated PDH levels. The experiment in a line: Immunoblot assay of p21Waf1 and phosphorylated PDH. It counts as cell-based, human. As for the experimental part: as §2
(§5) Immunoblot analyses were performed using antibodies specific for phosphorylated serine 293 PDH-EI (ab92696), p21^Waf1 (sc-397), cleaved PARP (5625), cleaved caspase-3 (9664), COX-IV (4850), and Cytochrome c (4280). They were purchased from Abcam (Cambridge, UK), Santa Cruz Biotechnology (Texas, USA) or Cell Signaling Technology (Massachusetts, USA). Anti-tubulin antibodies were obtained from Sigma-Aldrich (St. Louis, USA). Briefly, cells were washed twice in ice-cold PBS and lysed in a radioimmunoprecipitation assay buffer containing 50 mM Tris/HCl (pH 7.5), 150 mM NaCl, 0.1% sodium dodecyl sulfate (SDS), 1% Triton X-100, 1% sodium deoxycholate, and protease inhibitor mixture. After sonification, the lysate was centrifuged, and the supernatant was recovered and loaded onto a 12% SDS-polyacrylamide gel for electrophoresis.
On the technique in general: A western blot detects proteins with antibodies after separation by electrophoresis.

Series [8] concerns MCF7/Dox cells. The experiment in a line: Cytochrome c release from mitochondria, immunoblot. It counts as cell-based, human. The protocol:
as §4
as §5, with “electrophoresis. […]” for “electrophoresis.”

For the molecule `C#CCC(OC(=O)N[C@H]1C[C@H](O[C@H]2C[C@](O)(C(=O)CO)Cc3c(O)c4c(c(O)c32)C(=O)c2c(OC)cccc2C4=O)O[C@@H](C)[C@H]1O)c1ccc(NC(=O)C(Cl)Cl)cc1` (stereo partly drawn) [C2], the “tumor cell selectivity of cellular uptake” value (from here on “tumor cell selectivity”) in series [1] is recorded as “no cellular selectivity”. For the same molecule, in series [2], the “intracellular (mitochondrial) localization” value is on record as “no detectable mitochondrial localization”. Besides, the IC50 in series [3] (HepG2 cells, WST assay, read-out: IC50 (cytotoxicity)) worked out at 10.6 ± 1.03 µM. For the same molecule, the “cell death in cell-survival assays” value in series [3] (compared with C3-C6) is on record as “greater cell death in a dose-dependent manner”. Also, in series [4], the “intracellular accumulation in MCF7/Dox versus MCF7” value is given as “substantially lower level in MCF7/Dox than in MCF7”. In addition, in series [5], the colony-forming ability result is “showed this effect only in the case of the MCF7 cells”. The “reduction in tumor growth” value in series [6] was 16%.
On to `COc1cccc2c1C(=O)c1c(O)c3c(c(O)c1C2=O)C[C@@](O)(C(=O)CO)C[C@@H]3O[C@H]1C[C@H](NC(=O)OC(Cc2cn(CCCCCC[P+](c3ccccc3)(c3ccccc3)c3ccccc3)nn2)c2ccc(NC(=O)C(C)C)cc2)[C@H](O)[C@H](C)O1` (stereo partly drawn) [C3], for which the “tumor cell selectivity” value in series [1] was “taken up specifically by cancer cells”. Also, the “intracellular (mitochondrial) localization” value in series [2] is given as “located predominantly within the mitochondria”. For the same molecule, in series [7], the “effect on p21^Waf1 and phosphorylated PDH levels” value is given as “no effect on p21^Waf1 or PDH phosphorylation”. Also, in series [8], the “cytochrome c release, cleavage of caspase-3 and PARP-1, decrease in cell viability” value is given as “fails to evoke these effects”. The “reduction in tumor growth” value in series [6] came to 9%.
Take `C#CCC(OC(=O)N[C@H]1C[C@H](O[C@H]2C[C@](O)(C(=O)CO)Cc3c(O)c4c(c(O)c32)C(=O)c2c(OC)cccc2C4=O)O[C@@H](C)[C@H]1O)c1ccc(NC(=O)C(C)C)cc1` (stereo partly drawn) [C4]: the “tumor cell selectivity” value in series [1] is listed as “no cellular selectivity”. For the same molecule, the “intracellular (mitochondrial) localization” value in series [2] is recorded as “no detectable mitochondrial localization”. The “reduction in tumor growth” value in series [6] came to 6%.
